Experimental data taken from patent US12077503B2, “Substituted cyclic amides and their use as herbicides” (FMC CORPORATION, priority 2015, dated 2024).

How the values were obtained:
Assay type in all cases: in vivo
[1] = test system: pigweed (Amaranthus retroflexus); assay: Test A preemergence; conditions: Amaranthus retroflexus, pre-emergence, 240 h, 0 to 100 scale where 0 is no effect and 100 is complete control, read-out: Pigweed plant response rating
[2] = test system: giant foxtail (Setaria faberii); assay: Test A preemergence; conditions: Setaria faberi, pre-emergence, 240 h, 0 to 100 scale where 0 is no effect and 100 is complete control, read-out: Foxtail, Giant plant response rating
Procedure, shortened: (§1)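 Compounds were formulated in a non-phytotoxic solvent mixture with surfactant and applied as a preemergence directed soil spray after seeding, or sprayed postemergence over plants 2 to 10 cm tall at the one- to two-leaf stage. Evaluation after about 10 d compared treated with untreated controls, using a scale from 0 (no effect) to 100 (complete control).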

[3] = test system: barnyardgrass (Echinochloa crus-galli); assay: Test A preemergence; conditions: Echinochloa crus-galli, pre-emergence, 240 h, 0 to 100 scale where 0 is no effect and 100 is complete control, read-out: Barnyardgrass plant response rating
Procedure, shortened: as §1

[4] = test system: ryegrass, Italian (Italian ryegrass, Lolium multiflorum); assay: Test A preemergence; conditions: Lolium multiflorum, pre-emergence, 240 h, 0 to 100 scale where 0 is no effect and 100 is complete control, read-out: Ryegrass, Italian plant response rating
Procedure, shortened: as §1

[5] = test system: ragweed (common ragweed, Ambrosia elatior); assay: Test A preemergence; conditions: Ambrosia artemisiifolia, pre-emergence, 240 h, 0 to 100 scale where 0 is no effect and 100 is complete control, read-out: Ragweed plant response rating
Procedure, shortened: as §1

Kochia (Kochia scoparia) [6] = assay: Test A preemergence; conditions: Bassia scoparia, pre-emergence, 240 h, 0 to 100 scale where 0 is no effect and 100 is complete control, read-out: Kochia plant response rating
Procedure, shortened: as §1

[7] = test system: sedge, umbrella (small-flower umbrella sedge, Cyperus difformis); assay: Test B flooded paddy test; conditions: Cyperus difformis, 250 g ai/ha, Flood; 0 to 100 scale where 0 is no effect and 100 is complete control; read-out: Sedge, Umbrella plant response rating
Procedure, shortened: (§2)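 2-leaf plants; pots flooded 3 cm over soil; cpd added to paddy water; depth held; greenhouse 13–15 d; visual rating vs controls, 0 = no effect, 100 = complete control.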

rice (Oryra sativa) = assay: Test B flooded paddy test; conditions: Oryza sativa, 250 g ai/ha, Flood; 0 to 100 scale where 0 is no effect and 100 is complete control; read-out: Rice plant response rating
Procedure, shortened: as §2

[8] = test system: barnyardgrass (Echinochloa crus-galli); assay: Test B flooded paddy test; conditions: Echinochloa crus-galli, 250 g ai/ha, Flood; 0 to 100 scale where 0 is no effect and 100 is complete control; read-out: Barnyardgrass plant response rating
Procedure, shortened: as §2

[9] = test system: ducksalad (Heteranthera limosa); assay: Test B flooded paddy test; conditions: Heteranthera limosa, 250 g ai/ha, Flood; 0 to 100 scale where 0 is no effect and 100 is complete control; read-out: Ducksalad plant response rating
Procedure, shortened: as §2

[10] = test system: blackgrass (Alopecurus myosuroides); assay: Test A postemergence; conditions: Alopecurus myosuroides, post-emergence, 240 h
Procedure, shortened: as §1

[11] = test system: pigweed (Amaranthus retroflexus); assay: Test A postemergence; conditions: Amaranthus retroflexus, post-emergence, 240 h
Procedure, shortened: as §1

corn (Zea mays) = assay: Test A postemergence; conditions: Zea mays, post-emergence, 240 h
Procedure, shortened: as §1

[12] = test system: giant foxtail (Setaria faberii); assay: Test A postemergence; conditions: Setaria faberi, post-emergence, 240 h
Procedure, shortened: as §1

[13] = test system: barnyardgrass (Echinochloa crus-galli); assay: Test A postemergence; conditions: Echinochloa crus-galli, post-emergence, 240 h
Procedure, shortened: as §1

[14] = test system: wheat (Triticum aestivum); assay: Test A postemergence; conditions: Triticum aestivum, post-emergence, 240 h
Procedure, shortened: as §1

[15] = test system: ryegrass, Italian (Italian ryegrass, Lolium multiflorum); assay: Test A postemergence; conditions: Lolium multiflorum, post-emergence, 240 h
Procedure, shortened: as §1

[16] = test system: ragweed (common ragweed, Ambrosia elatior); assay: Test A postemergence; conditions: Ambrosia artemisiifolia, post-emergence, 240 h
Procedure, shortened: as §1

[17] = test system: Galium (catchweed bedstraw, Galium aparine); assay: Test A postemergence; conditions: Galium, post-emergence, 240 h
Procedure, shortened: as §1

Kochia (Kochia scoparia) [18] = assay: Test A postemergence; conditions: Bassia scoparia, post-emergence, 240 h
Procedure, shortened: as §1

[19] = 125 g ai/ha, preemergence, approx. 10 d

## O=C1NC[C@H](c2csc3c2CCCC3)[C@H]1C(=O)Nc1cccc(F)c1F [Compound 1163]
[1]; 31 g ai/ha, Preemergence
  pest or weed control at 31 g/ha: 0%
[1]; [19]
  pest or weed control at 125 g/ha: 0%
[2]; 31 g ai/ha, Preemergence
  pest or weed control at 31 g/ha: 10%
[2]; [19]
  pest or weed control at 125 g/ha: 60%
[3]; 31 g ai/ha, Preemergence
  pest or weed control at 31 g/ha: 70%
[3]; [19]
  pest or weed control at 125 g/ha: 90%
[4]; 31 g ai/ha, Preemergence
  pest or weed control at 31 g/ha: 0%
[4]; [19]
  pest or weed control at 125 g/ha: 0%
[5]; 31 g ai/ha, Preemergence
  pest or weed control at 31 g/ha: 0%
[5]; [19]
  pest or weed control at 125 g/ha: 0%
Kochia (Kochia scoparia) [6]; 31 g ai/ha, Preemergence
  pest or weed control at 31 g/ha: 0%
Kochia (Kochia scoparia) [6]; [19]
  pest or weed control at 125 g/ha: 20%
[7]
  pest or weed control at 250 g/ha: 0%
Rice (Oryra sativa)
  pest or weed control at 250 g/ha: 0%
[8]
  pest or weed control at 250 g/ha: 30%
[9]
  pest or weed control at 250 g/ha: 95%
[10]; 125 g ai/ha, postemergence, visual injury vs untreated controls after approx. 10 d, 0 = no effect, 100 = complete control, read-out: Blackgrass plant response rating (0 to 100 scale)
  pest or weed control at 125 g/ha: 20%
[10]; Postemergence, 31 g ai/ha, visual injury after approx. 10 d, 0 to 100 scale, 0 no effect, 100 complete control, read-out: Plant response rating, Blackgrass
  pest or weed control at 31 g/ha: 0%
[11]; 125 g ai/ha, postemergence, visual injury vs untreated controls after approx. 10 d, 0 = no effect, 100 = complete control, read-out: Pigweed plant response rating (0 to 100 scale)
  pest or weed control at 125 g/ha: 0%
[11]; Postemergence, 31 g ai/ha, visual injury after approx. 10 d, 0 to 100 scale, 0 no effect, 100 complete control, read-out: Plant response rating, Pigweed
  pest or weed control at 31 g/ha: 0%
Corn (Zea mays); 125 g ai/ha, postemergence, visual injury vs untreated controls after approx. 10 d, 0 = no effect, 100 = complete control, read-out: Corn plant response rating (0 to 100 scale)
  plant injury at 125 g/ha: 0%
Corn (Zea mays); Postemergence, 31 g ai/ha, visual injury after approx. 10 d, 0 to 100 scale, 0 no effect, 100 complete control
  Corn plant response rating (crop injury, 0 = no effect, 100 = complete kill) at 31 g/ha: 0%
[12]; 125 g ai/ha, postemergence, visual injury vs untreated controls after approx. 10 d, 0 = no effect, 100 = complete control, read-out: Foxtail, Giant plant response rating (0 to 100 scale)
  pest or weed control at 125 g/ha: 0%
[12]; Postemergence, 31 g ai/ha, visual injury after approx. 10 d, 0 to 100 scale, 0 no effect, 100 complete control, read-out: Plant response rating, Foxtail, Giant
  pest or weed control at 31 g/ha: 0%
[13]; 125 g ai/ha, postemergence, visual injury vs untreated controls after approx. 10 d, 0 = no effect, 100 = complete control, read-out: Barnyardgrass plant response rating (0 to 100 scale)
  pest or weed control at 125 g/ha: 60%
[13]; Postemergence, 31 g ai/ha, visual injury after approx. 10 d, 0 to 100 scale, 0 no effect, 100 complete control, read-out: Plant response rating, Barnyardgrass
  pest or weed control at 31 g/ha: 30%
[14]; 125 g ai/ha, postemergence, visual injury vs untreated controls after approx. 10 d, 0 = no effect, 100 = complete control, read-out: Wheat plant response rating (0 to 100 scale)
  plant injury at 125 g/ha: 0%
[14]; Postemergence, 31 g ai/ha, visual injury after approx. 10 d, 0 to 100 scale, 0 no effect, 100 complete control, read-out: Plant response rating, Wheat
  plant injury at 31 g/ha: 0%
[15]; 125 g ai/ha, postemergence, visual injury vs untreated controls after approx. 10 d, 0 = no effect, 100 = complete control, read-out: Ryegrass, Italian plant response rating (0 to 100 scale)
  pest or weed control at 125 g/ha: 0%
[15]; Postemergence, 31 g ai/ha, visual injury after approx. 10 d, 0 to 100 scale, 0 no effect, 100 complete control, read-out: Plant response rating, Ryegrass, Italian
  pest or weed control at 31 g/ha: 0%
[16]; 125 g ai/ha, postemergence, visual injury vs untreated controls after approx. 10 d, 0 = no effect, 100 = complete control, read-out: Ragweed plant response rating (0 to 100 scale)
  pest or weed control at 125 g/ha: 0%
[16]; Postemergence, 31 g ai/ha, visual injury after approx. 10 d, 0 to 100 scale, 0 no effect, 100 complete control, read-out: Plant response rating, Ragweed
  pest or weed control at 31 g/ha: 0%
[17]; 125 g ai/ha, postemergence, visual injury vs untreated controls after approx. 10 d, 0 = no effect, 100 = complete control, read-out: Galium plant response rating (0 to 100 scale)
  pest or weed control at 125 g/ha: 20%
[17]; Postemergence, 31 g ai/ha, visual injury after approx. 10 d, 0 to 100 scale, 0 no effect, 100 complete control, read-out: Plant response rating, Galium
  pest or weed control at 31 g/ha: 0%
Kochia (Kochia scoparia) [18]; 125 g ai/ha, postemergence, visual injury vs untreated controls after approx. 10 d, 0 = no effect, 100 = complete control, read-out: Kochia plant response rating (0 to 100 scale)
  pest or weed control at 125 g/ha: 0%
Kochia (Kochia scoparia) [18]; Postemergence, 31 g ai/ha, visual injury after approx. 10 d, 0 to 100 scale, 0 no effect, 100 complete control, read-out: Plant response rating, Kochia
  pest or weed control at 31 g/ha: 0%
